# Assay results from patent US20020061927A1, “Insulin receptor activators for the treatment of metabolic disorders induced by treatment with HIV protease inhibitors” (priority 2000, published 2002).
# Columns and labels:
# 3T3 L1 adipocytes = assay: Reversal of HIV protease inhibitor block of glucose transport in cells (14C-2-deoxy-D-glucose uptake); assay type: cell-based; settings: for effect of HIV protease inhibitor drug on glucose transport activity: 3T3 L1 adipocytes; for glucose transport: 3T3 L1 cells; for effect on glucose transport activity inhibited by HIV protease inhibitor drugs: 3T3 L1 adipocytes in presence of Ritonavir, Indinavir or Amprenavir
# Method: Stimulation of the insulin receptor leads to the transport of glucose from the blood into cells, thus modulating blood glucose levels. 3T3 L1 fibroblasts (ATCC) were grown in Dulbecco's modified Eagle's medium (DMEM) with 10% fetal bovine serum (FBS). The cells were plated at a density of 3×10^4 cells/ml in 96 well plates (0.1 ml/well). Two days after confluence was reached, the cells were treated for 3 days with 0.5 mM isobutylmethylxanthine (IBMX), 1 μM dexamethasone, and 1.7 μM insulin. The cells were then transferred to DMEM with 10% FBS and supplemented with 1.7 μM insulin for 2 more days. The cells were maintained in DMEM with 10% FBS for an additional 4 days. Finally, the cells were serum starved overnight in 0.1% bovine serum albumin (BSA) in DMEM.
# The following day, the cells were pretreated with Indinavir, Ritonavir, or Amprenavir (at the concentrations indicated in the Tables below) in a buffer containing 150 mM NaCl, 1.7 mM KCl, 0.9 mM CaCl2 1.47 mM K2HPO4 (pH 7.4) and 0.01% BSA for 6 minutes followed by treatment with a compound described in this patent (56 μM compound 1; 20 μM compound 2) with or without 100 nM insulin for 30 minutes. Following incubation, the cells were labeled with ^14C-labeled 2-deoxy-D-glucose (0.5 μCi/ml) and incubation was continued for additional 30 minutes at 37° C. The cells were then washed 3 times with ice-cold PBS/20 mM glucose and lysed in 100 μl of lysis buffer (50 mM Hepes pH 7.6, 1% Triton X-100) for 30 minutes at room temperature. Radioactivity in the lysate was quantified by scintillation counting.
# Once ^14C-2-deoxy-D-glucose is transported into the cells, it is not released. Glucose transport is, therefore, proportional to the amount of radioactivity in the lysate.
# male CD rats = assay: Reversal of protease inhibitor-mediated insulin resistance in normal rats (oral glucose challenge); assay type: in vivo, rat; settings: indinavir sulfate plus compound 1, oral
# Method: Seven to nine week-old male CD rats (Charles River Laboratories, Hollister, Calif.) were used to study the effects of protease inhibitor and compound 1. Animals were kept in a 12 h/12 h light/dark cycle and were fasted overnight.
# Indinavir sulfate was prepared in water, and compound 1 was prepared in PBS. Seven animals (average weight 300 grams) were used in each treatment condition. The animals were treated with vehicle or indinavir sulfate or indinavir sulfate plus compound 1 by oral administration. After 30 min, the animals were challenged with oral glucose load (2 g/kg), and blood glucose measurements were taken at 0 min, 10 min, 20 min, 30 min, 60 min, 90 min and 120 min by tail bleeding. Glucose measurements were made with a Glucometer and Glucose strips (Bayer).
# The blood glucose levels are reported as the percentage of the values before challenge (“zero time” values).
# Blood samples obtained from 0 min and 30 min time points were analysed for plasma insulin levels by ELISA (ALPCO Diagnostics, Windham, N.H.).
# [1] = 5 μM Amprenavir pretreatment, 56 μM compound 1 / 20 μM compound 2
# [2] = 5 μM Indinavir pretreatment, 56 μM compound 1 / 20 μM compound 2
# [3] = 10 μM Amprenavir pretreatment, 56 μM compound 1 / 20 μM compound 2
# [4] = 10 μM Indinavir pretreatment, 56 μM compound 1 / 20 μM compound 2
# [5] = 20 μM Indinavir pretreatment, 56 μM compound 1 / 20 μM compound 2
structure (smiles),measurement,setting,value
"CC(C)CN(C[C@@H](O)[C@H](Cc1ccccc1)NC(=O)O[C@H]1CCOC1)S(=O)(=O)c1ccc(N)cc1 [Amprenavir, reference compound]",effect of HIV protease inhibitor drug on glucose transport activity,3T3 L1 adipocytes,inhibited
O=C(Nc1ccc2c(O)cc(S(=O)(=O)Nc3ccc(Cl)c(S(=O)(=O)O)c3)cc2c1)Nc1ccc2c(O)cc(S(=O)(=O)Nc3ccc(Cl)c(S(=O)(=O)O)c3)cc2c1 [Compound 1],protease inhibitor-mediated insulin resistance,male CD rats,Reversal of Protease Inhibitor-mediated Insulin Resistance
same,glucose transport,3T3 L1 adipocytes; [1],1.83 fold over fold over 50 nM insulin
same,glucose transport,3T3 L1 adipocytes; [2],1.34 fold over fold over 50 nM insulin
same,glucose transport,"3T3 L1 adipocytes; 5 μM Ritonavir pretreatment, 56 μM compound 1",1.32 foldover fold over 50 nM insulin
same,glucose transport,3T3 L1 adipocytes; [3],1.53 fold over fold over 50 nM insulin
same,glucose transport,3T3 L1 adipocytes; [4],1.16 fold over fold over 50 nM insulin
same,glucose transport,"3T3 L1 adipocytes; 20 μM Amprenavir pretreatment, 56 μM compound 1",1.21 fold over fold over 50 nM insulin
same,glucose transport,3T3 L1 adipocytes; [5],1.12 fold over fold over 50 nM insulin
same,effect on glucose transport activity inhibited by HIV protease inhibitor drugs,3T3 L1 adipocytes,increase the glucose transport activity
O=C(Nc1ccc2c(O)c(/N=N/c3ccc(/N=N/c4ccc(S(=O)(=O)O)cc4)cc3S(=O)(=O)O)c(S(=O)(=O)O)cc2c1)Nc1ccc2c(O)cc(S(=O)(=O)O)c(N=Nc3ccc(/N=N/c4ccc(S(=O)(=O)O)cc4)cc3S(=O)(=O)O)c2c1 [Compound 2],glucose transport,3T3 L1 adipocytes; [1],1.25 foldover fold over 50 nM insulin
same,glucose transport,3T3 L1 adipocytes; [2],1.38 fold over fold over 50 nM insulin
same,glucose transport,3T3 L1 adipocytes; [3],1.07 foldover fold over 50 nM insulin
same,glucose transport,3T3 L1 adipocytes; [4],1.25 fold over fold over 50 nM insulin
same,glucose transport,3T3 L1 adipocytes; [5],1.02 fold over fold over 50 nM insulin
same,effect on glucose transport activity inhibited by HIV protease inhibitor drugs,3T3 L1 adipocytes,increase the glucose transport activity
"CC(C)(C)NC(=O)[C@@H]1CN(Cc2cccnc2)CCN1C[C@@H](O)C[C@@H](Cc1ccccc1)C(=O)N[C@H]1c2ccccc2C[C@H]1O [Indinavir, reference compound]",effect of HIV protease inhibitor drug on glucose transport activity,3T3 L1 adipocytes,inhibited
"CC(C)c1nc(CN(C)C(=O)N[C@H](C(=O)N[C@@H](Cc2ccccc2)C[C@H](O)[C@H](Cc2ccccc2)NC(=O)OCc2cncs2)C(C)C)cs1 [Ritonavir, reference compound]",effect of HIV protease inhibitor drug on glucose transport activity,3T3 L1 adipocytes,inhibited
